Data published in patent publication US20260248747A1, “PHYSICAL PERFORMANCE AID” (aXichem AB, priority 2023, published 2026).
Several values for one entry are separate records, joined by “and”; a condition that tells them apart may be missing. Equal entries are not always repeated. Entries after “also recorded” stand apart in the source; their conditions may differ.

Assays:
[1] = high-dose oral encapsulated capsaicin, 25.8 mg; cited from earlier work
[2] = 1.2 mg purified capsaicin in gummy format; isokinetic knee extension; cited from earlier work
[3] = test system: trained men; settings: acute 12 mg capsaicin; squat exercise; cited from earlier work
[4] = test system: resistance trained men; design: species or system human; settings: in vivo
[5] = test system: healthy men with resistance training experience; design: species or system human; settings: in vivo
[6] = test system: resistance trained men; design: species or system human; settings: in vivo; remark: listed apart in the source
[7] = test system: healthy men with resistance training experience; design: species or system human; settings: in vivo; remark: listed apart in the source
[8] = test system: resistance trained men; design: species or system human; settings: in vivo; remark: listed apart in the source
[9] = test system: resistance trained men; design: species or system human; settings: in vivo
[10] = test system: resistance trained men; design: species or system human; settings: in vivo, po
[11] = test system: healthy men with resistance training experience; design: species or system human; settings: in vivo; remark: listed apart in the source
[12] = test system: healthy men with resistance training experience; design: species or system human; settings: in vivo; remark: listed apart in the source

COc1cc(CNC(=O)CCCC/C=C/C(C)C)ccc1O [capsaicin, 8-methyl-N-vanillyl-trans-6-nonenamide]
tolerability after oral supplementation [1]: intestinal discomfort
summed torque or fatigue index [2]: did not reach significant differences
number of repetitions until failure [3]: increased significantly
rated perceived exertion overall body (RPE-OB) [3]: reduced
total weight lifted [3]: increased significantly

phenylcapsaicyn
PRS, one-way repeated measures ANOVA between conditions [4]: no differences between conditions
RPE-AM (local RPE in quadriceps), Bonferroni post-hoc comparison [4]: significant differences
RPE-OB, Bonferroni post-hoc analyses between conditions [4]: no significant differences
perceived exertion for the active muscle, RPE-AM [4]: reduced perceived exertion for the active muscle
CMJ height post values, post-hoc Wilcoxon comparison [5]: significant differences
countermovement jump (CMJ) post and post 24 stages [5]: exhibited higher values
percentage of change in CMJ from pre to post values, post-hoc analyses [5]: did not reach any significant difference
AST post values, post-hoc Wilcoxon comparison [6]: significant higher post levels of AST for PLA compared to HD
AST ([6]; po): 17.40 ± 11.25 U/L and 16.37 ± 11.29 U/L and 27.06 ± 14.66 U/L and 22.39 ± 10.86 U/L
AST (% change) ([6]; po): 119.62 ± 166.08% and 110.21 ± 167.16%
60% load MDF VLA [7]: 94.20 ± 12.57% and 92.43 ± 15.57% and 87.66 ± 11.86% and 87.61 ± 11.16% and 89.62 ± 12.28% and 94.85 ± 19.89%
60% load MDF VM [7]: 93.24 ± 12.84% and 87.62 ± 9.55% and 88.27 ± 13.74% and 87.29 ± 15.23% and 88.62 ± 16.06% and 84.97 ± 10.64%
60% load RMS VLA [7]: 131.16 ± 36.34% and 144.45 ± 50.27% and 119.38 ± 47.67% and 103.95 ± 49.44% and 149.81 ± 47.00% and 133.16 ± 33.21%
60% load RMS VLA, post-hoc Bonferroni comparison [7]: significant differences between PLA and LID
60% load RMS VM [7]: 131.17 ± 29.13% and 120.88 ± 31.08% and 117.18 ± 19.75% and 112.41 ± 42.15% and 133.87 ± 43.81% and 138.30 ± 47.06%
Isometric MDF VLA [7]: 98.12 ± 9.79% and 99.07 ± 13.42% and 97.78 ± 9.79% and 100.39 ± 12.86%
Isometric MDF VM [7]: 93.75 ± 11.10% and 91.04 ± 14.79% and 97.28 ± 13.72% and 101.88 ± 18.22%
Isometric RMS VLA [7]: 99.88 ± 41.48% and 99.21 ± 50.39% and 126.91 ± 33.50% and 100.25 ± 25.60%
Isometric RMS VM [7]: 120.01 ± 58.48% and 118.65 ± 41.54% and 113.38 ± 24.62% and 102.79 ± 32.43%
Training MDF VLA [7]: 89.90 ± 10.21% and 90.47 ± 12.71% and 88.36 ± 11.03% and 89.99 ± 12.70% and 86.91 ± 9.27% and 89.91 ± 11.39%
Training MDF VM [7]: 85.63 ± 11.87% and 91.01 ± 15.42% and 84.07 ± 11.93% and 90.42 ± 18.35% and 83.74 ± 9.68% and 90.58 ± 15.25%
Training RMS VLA [7]: 123.84 ± 34.86% and 121.24 ± 36.40% and 146.42 ± 47.13% and 119.29 ± 38.40% and 135.14 ± 53.99% and 107.20 ± 42.77%
Training RMS VM [7]: 128.39 ± 50.89% and 111.81 ± 31.90% and 132.39 ± 40.98% and 109.58 ± 36.84% and 138.04 ± 55.37% and 107.44 ± 35.96%
training RMS VM, post-hoc Bonferroni comparison [7]: significant differences were found between HD and LID
percentage of change for urea values, post-hoc Wilcoxon comparison [8]: significant higher percentage of change for LID compared to PLA
Urea ([8]; po): 40.77 ± 14.17 mg/dL and 37.48 ± 18.18 mg/dL and 29.77 ± 10.67 mg/dL and 30.31 ± 10.41 mg/dL
60% fastest velocity, post-hoc Bonferroni comparison [9]: significant differences between LD and PLA
60% fastest-V [9]: 0.97 ± 0.07 m · s^−1 and 0.96 ± 0.07 m · s^−1
Fastest-V [9]: 0.87 ± 0.03 m · s^−1 and 0.80 ± 0.06 m · s^−1
Mean-Vt [9]: 0.61 ± 0.07 m · s^−1 and 0.64 ± 0.07 m · s^−1
Repetitions performed in the protocol [9]: 24 ± 0.00
Slowest-Vt [9]: 0.45 ± 0.09 m · s^−1 and 0.49 ± 0.09 m · s^−1
Weight [9]: 87.69 ± 15.87 kg and 87.57 ± 14.69 kg
maximal velocity loss, post-hoc Bonferroni comparison [9]: significant differences between HD and LD
mean velocity, post-hoc Bonferroni comparison [9]: almost was achieved between HD and PLA
Lactate (% change) [10]: 663.97 ± 352.36% and 653.16 ± 307.31%
MIF [11]: 1,175.92 ± 370.86 N and 1,182.71 ± 429.84 N and 1,063.035 ± 265.86 N and 1,091.67 ± 331.61 N and 1,084.25 ± 375.82 N and 1,131.50 ± 420.02 N
RFD0-50 [11]: 2,765.42 ± 1,725.44 N · s^1 and 2,544.07 ± 1,150.29 N · s^1 and 2,335.85 ± 1,408.53 N · s^1 and 2,375.33 ± 1,172.75 N · s^1 and 2,006.35 ± 773.62 N · s^1 and 2,190.07 ± 1,249.61 N · s^1
RFD0-100 [11]: 2,921.42 ± 1,353.33 N · s^1 and 2,585.57 ± 1,998.95 N · s^1 and 2,320.43 ± 1,229.46 N · s^1 and 1,968.46 ± 1,373.43 N · s^1 and 2,129.25 ± 942.03 N · s^1 and 2,377.32 ± 1,196.68 N · s^1
RFD0-150 [11]: 2,958.42 ± 1,280.93 N · s^1 and 2,635.67 ± 1,075.21 N · s^1 and 2,388.16 ± 1,184.60 N · s^1 and 2,129.54 ± 1,279.24 N · s^1 and 2,260.47 ± 1,032.89 N · s^1 and 2,450.52 ± 1,275.39 N · s^1
RFD0-200 [11]: 2,697.29 ± 1,219.14 N · s^1 and 2,456.98 ± 1,052.11 N · s^1 and 2,178.30 ± 1,101.08 N · s^1 and 1,973.26 ± 1,214.84 N · s^1 and 2,067.32 ± 978.09 N · s^1 and 2,361.75 ± 1,214.58 N · s^1
RFD0-400 [11]: 1,764.86 ± 898.55 N · s^1 and 1,784.80 ± 809.39 N · s^1 and 1,489.55 ± 733.99 N · s^1 and 1,521.34 ± 853.94 N · s^1 and 1,610.34 ± 773.99 N · s^1 and 1,664.43 ± 912.04 N · s^1
isometric mechanical outcomes (MIF, RFD), two-way repeated measures ANOVAs [11]: no significant differences for any outcome
60% load MFP best [12]: 950.82 ± 170.05 N and 945.34 ± 152.48 N and 907.38 ± 148.53 N and 903.85 ± 155.90 N and 930.60 ± 146.67 N and 936.27 ± 149.32 N
60% load MPP best [12]: 822.00 ± 166.47 W and 810.71 ± 157.90 W and 688.32 ± 166.67 W and 698.67 ± 180.46 W and 796.70 ± 149.05 W and 798.56 ± 170.19 W
60% load MPV best [12]: 0.93 ± 0.06 m/s and 0.80 ± 0.08 m/s and 0.81 ± 0.12 m/s and 0.93 ± 0.09 m/s and 0.91 ± 0.08 m/s
% VL (percentage of velocity loss during a set) [12]: 29.78 ± 10.90% and 26.62 ± 9.37% and 30.91 ± 10.24% and 26.65 ± 11.73% and 34.36 ± 12.15%
MFP mean [12]: 974.60 ± 162.62 N and 962.14 ± 148.59 N and 950.75 ± 161.58 N and 942.66 ± 141.94 N and 941.04 ± 156.67 N and 931.41 ± 141.91 N
MPP Best [12]: 770.42 ± 151.29 W and 744.70 ± 169.44 W and 694.45 ± 160.43 W and 701.32 ± 147.81 W and 681.99 ± 149.20 W and 683.86 ± 141.59 W
MPP mean [12]: 626.70 ± 147.11 W and 612.99 ± 145.84 W and 559.89 ± 128.61 W and 583.27 ± 128.14 W and 539.99 ± 126.34 W and 548.46 ± 135.58 W
MPV best [12]: 0.78 ± 0.05 m/s and 0.79 ± 0.06 m/s and 0.72 ± 0.07 m/s and 0.74 ± 0.07 m/s and 0.71 ± 0.07 m/s and 0.73 ± 0.05 m/s
MPV mean [12]: 0.66 ± 0.07 m/s and 0.68 ± 0.07 m/s and 0.60 ± 0.07 m/s and 0.64 ± 0.08 m/s and 0.58 ± 0.08 m/s and 0.61 ± 0.08 m/s
MPV of individual repetitions, post-hoc Bonferroni [12]: differences between HD and PLA in repetition 23; also recorded: HD and LD in repetitions 15 and 16
Total volume load [12]: 2,014.57 ± 380.94 kg
